Like-named read-outs stand apart in the source and are kept apart here.
Biological target: BTK (Homo sapiens (Human), UniProt Q06187)
Experiment: Btk in vitro inhibitory activity (one of Method A TR-FRET, Method B electrophoretic mobility shift, Method C radiometric filter binding)
Type: biochemical
[1] = determined using one of the methods of Example 355a, 355b and 355c, read-out: BTK IC50

BTK, sequence (Q06187 whole entry): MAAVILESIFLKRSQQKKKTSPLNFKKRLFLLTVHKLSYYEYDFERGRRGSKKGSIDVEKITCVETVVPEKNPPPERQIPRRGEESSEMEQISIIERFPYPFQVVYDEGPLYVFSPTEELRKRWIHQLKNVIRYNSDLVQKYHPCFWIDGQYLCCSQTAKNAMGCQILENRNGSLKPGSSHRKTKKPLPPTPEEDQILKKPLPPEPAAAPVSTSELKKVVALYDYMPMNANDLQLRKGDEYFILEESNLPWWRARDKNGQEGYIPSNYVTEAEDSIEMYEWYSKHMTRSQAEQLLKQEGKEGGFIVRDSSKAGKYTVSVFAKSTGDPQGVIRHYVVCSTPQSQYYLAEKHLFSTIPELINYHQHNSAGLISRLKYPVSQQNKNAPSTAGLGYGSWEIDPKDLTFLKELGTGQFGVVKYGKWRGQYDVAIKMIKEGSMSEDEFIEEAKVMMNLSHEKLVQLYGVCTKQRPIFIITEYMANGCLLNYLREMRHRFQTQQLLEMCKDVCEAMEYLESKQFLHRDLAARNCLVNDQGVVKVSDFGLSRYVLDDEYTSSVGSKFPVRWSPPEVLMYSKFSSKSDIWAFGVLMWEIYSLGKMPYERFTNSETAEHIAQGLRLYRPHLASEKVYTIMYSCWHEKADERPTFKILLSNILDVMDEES

SMILES	IC50 [1]	IC50 (read-out: Btk (IC50))	IC50 (Btk (IC50))
CN1CCN([C@@H]2CCCN(c3cnc(C(N)=O)c(Nc4ccc(C5(C#N)CCN(C6CCCC6)CC5)cc4)n3)C2)C1=O [Example 271, (R)-3-(4-(4-cyano-1-cyclopentylpiperidin-4-yl)phenylamino)-5-(3-(3-methyl-2-oxoimidazolidin-1-yl)piperidin-1-yl)pyrazine-2-carboxamide]		< 10 nM	
CN1CCN([C@@H]2CCCN(c3cnc(C(N)=O)c(Nc4ccc(C5(C(N)=O)CCN(C6CCCC6)CC5)cc4)n3)C2)C1=O [Example 272, (R)-3-(4-(4-carbamoyl-1-cyclopentylpiperidin-4-yl)phenylamino)-5-(3-(3-methyl-2-oxoimidazolidin-1-yl)piperidin-1-yl)pyrazine-2-carboxamide]		< 10 nM	
CN1CCN([C@@H]2CCCN(c3cnc(C(N)=O)c(Nc4ccc(C5(C#N)CCN(C6CCC6)CC5)cc4)n3)C2)C1=O [Example 273, (R)-3-(4-(4-cyano-1-cyclobutylpiperidin-4-yl)phenylamino)-5-(3-(3-methyl-2-oxoimidazolidin-1-yl)piperidin-1-yl)pyrazine-2-carboxamide]	< 10 nM	< 10 nM	
NC(=O)c1ncc(N2CCC[C@@H](N3CCNC3=O)C2)nc1Nc1ccc(C2CCN(C3CCCC3)CC2)cc1 [Example 274, (R)-3-(4-(1-cyclopentylpiperidin-4-yl)phenylamino)-5-(3-(2-oxoimidazolidin-1-yl)piperidin-1-yl)pyrazine-2-carboxamide]	< 10 nM	< 10 nM	
CCN1CCN([C@@H]2CCCN(c3cnc(C(N)=O)c(Nc4ccc(C5CCN(C6CCCC6)CC5)cc4)n3)C2)C1=O [Example 275, (R)-3-(4-(1-cyclopentylpiperidin-4-yl)phenylamino)-5-(3-(3-ethyl-2-oxoimidazolidin-1-yl)piperidin-1-yl)pyrazine-2-carboxamide]	< 10 nM	< 10 nM	
CCN1CCN([C@@H]2CCCN(c3cnc(C(N)=O)c(Nc4ccc(C5(C)CCN(C6CC6)CC5)cc4)n3)C2)C1=O [Example 276, (R)-3-(4-(1-cyclopropyl-4-methylpiperidin-4-yl)phenylamino)-5-(3-(3-ethyl-2-oxoimidazolidin-1-yl)piperidin-1-yl)pyrazine-2-carboxamide]	< 10 nM	< 10 nM	
NC(=O)c1ncc(N2CCC[C@@H](N3CCN(C4CC4)C3=O)C2)nc1Nc1ccc(C2CCN(C3CCC3)CC2)cc1 [Example 278, (R)-3-(4-(1-cyclobutylpiperidin-4-yl)phenylamino)-5-(3-(3-cyclopropyl-2-oxoimidazolidin-1-yl)piperidin-1-yl)pyrazine-2-carboxamide]	< 10 nM	< 10 nM	
CC1(c2ccc(Nc3nc(N4CCC[C@@H](N5CCN(C6CC6)C5=O)C4)cnc3C(N)=O)cc2)CCN(C2CC2)CC1 [Example 279, (R)-5-(3-(3-cyclopropyl-2-oxoimidazolidin-1-yl)piperidin-1-yl)-3-(4-(1-cyclopropyl-4-methylpiperidin-4-yl)phenylamino)pyrazine-2-carboxamide]		< 10 nM	
CN1CCCN([C@@H]2CCCN(c3cnc(C(N)=O)c(Nc4ccc(C5(C)CCN(C6CCCC6)CC5)cc4)n3)C2)C1=O [Example 283, (R)-3-(4-(1-cyclopentyl-4-methylpiperidin-4-yl)phenylamino)-5-(3-(3-methyl-2-oxotetrahydropyrimidin-1(2H)-yl)piperidin-1-yl)pyrazine-2-carboxamide]	< 10 nM	< 10 nM	
CN1CCCN([C@@H]2CCCN(c3cnc(C(N)=O)c(Nc4ccc(C5CCN(C6CC6)CC5)cc4)n3)C2)C1=O [Example 284, (R)-3-(4-(1-cyclopropylpiperidin-4-yl)phenylamino)-5-(3-(3-methyl-2-oxotetrahydropyrimidin-1(2H)-yl)piperidin-1-yl)pyrazine-2-carboxamide]	< 10 nM	< 10 nM	
CN1CCCN([C@@H]2CCCN(c3cnc(C(N)=O)c(Nc4ccc(C5(C)CCN(C6CC6)CC5)cc4)n3)C2)C1=O [Example 285, (R)-3-(4-(1-cyclopropyl-4-methylpiperidin-4-yl)phenylamino)-5-(3-(3-methyl-2-oxotetrahydropyrimidin-1(2H)-yl)piperidin-1-yl)pyrazine-2-carboxamide]	< 10 nM	< 10 nM	
CS(=O)(=O)N[C@@H]1CCCN(c2cnc(C(N)=O)c(Nc3ccc(C4CCN(C5CCCC5)CC4)cc3)n2)C1 [Example 300, (R)-3-(4-(1-cyclopentylpiperidin-4-yl)phenylamino)-5-(3-(methylsulfonamido)piperidin-1-yl)pyrazine-2-carboxamide]	10 to 100 nM		10 to 100 nM
CN(C)S(=O)(=O)N[C@@H]1CCCN(c2cnc(C(N)=O)c(Nc3ccc(C4CCN(C5CCCC5)CC4)cc3)n2)C1 [Example 302, (R)-3-(4-(1-cyclopentylpiperidin-4-yl)phenylamino)-5-(3-(N,N-dimethylsulfamoylamino)piperidin-1-yl)pyrazine-2-carboxamide]	10 to 100 nM		
NC(=O)c1ncc(N2CCC[C@@H](NC(=O)c3ccccc3)C2)nc1Nc1ccc(C2CCN(C3CCCC3)CC2)cc1 [Example 303, (R)-5-(3-benzamidopiperidin-1-yl)-3-(4-(1-cyclopentylpiperidin-4-yl)phenylamino)pyrazine-2-carboxamide]	< 10 nM	< 10 nM	

Next, values leading:

IC50 [1]	IC50 (read-out: Btk (IC50))	IC50 (Btk (IC50))	SMILES
< 10 nM	< 10 nM		CN1CCN([C@@H]2CCCN(c3cnc(C(N)=O)c(Nc4ccc(C5(C)CCN(C(=O)C6CC6)CC5)cc4)n3)C2)C1=O [Example 270, (R)-3-(4-(1-(cyclopropanecarbonyl)-4-methylpiperidin-4-yl)phenylamino)-5-(3-(3-methyl-2-oxoimidazolidin-1-yl)piperidin-1-yl)pyrazine-2-carboxamide]
< 10 nM	< 10 nM		NC(=O)c1ncc(N2CCC[C@@H](N3CCN(C4CC4)C3=O)C2)nc1Nc1ccc(C2CCN(C3CCCC3)CC2)cc1 [Example 277, (R)-3-(4-(1-cyclopentylpiperidin-4-yl)phenylamino)-5-(3-(3-cyclopropyl-2-oxoimidazolidin-1-yl)piperidin-1-yl)pyrazine-2-carboxamide]
< 10 nM		< 10 nM	C[C@@H]1[C@H](N2CCCN(C)C2=O)CCCN1c1cnc(C(N)=O)c(Nc2ccc(C3CCN(C4CCCC4)CC3)cc2)n1 [Example 281, 3-(4-(1-cyclopentylpiperidin-4-yl)phenylamino)-5-((2R,3R)-2-methyl-3-(3-methyl-2-oxotetrahydropyrimidin-1(2H)-yl)piperidin-1-yl)pyrazine-2-carboxamide]
< 10 nM	< 10 nM		CN1CCCN([C@@H]2CCCN(c3cnc(C(N)=O)c(Nc4ccc(C5CCN(C6CCCC6)CC5)cc4)n3)C2)C1=O [Example 282, (R)-3-(4-(1-cyclopentylpiperidin-4-yl)phenylamino)-5-(3-(3-methyl-2-oxotetrahydropyrimidin-1(2H)-yl)piperidin-1-yl)pyrazine-2-carboxamide]
10 to 100 nM	10 to 100 nM		NC(=O)c1ncc(N2CCC[C@H]3NCC[C@H]32)nc1Nc1ccc(C2CCN(C3CCCC3)CC2)cc1 [Example 286, 3-(4-(1-cyclopentylpiperidin-4-yl)phenylamino)-5-((3aR,7aR)-dihydro-1H-pyrrolo[3,2-b]pyridin-4(2H,5H,6H,7H,7aH)-yl)pyrazine-2-carboxamide]
10 to 100 nM			CN(C)C(=O)N1CCC[C@@H]2[C@H]1CCCN2c1cnc(C(N)=O)c(Nc2ccc(C3CCN(C4CCCC4)CC3)cc2)n1 [Example 289, (4aR,8aR)-5-(5-carbamoyl-6-(4-(1-cyclopentylpiperidin-4-yl)phenylamino)pyrazin-2-yl)-N,N-dimethyloctahydro-1,5-naphthyridine-1(2H)-carboxamide]
10 to 100 nM			C[C@@H]1CCN(c2cnc(C(N)=O)c(Nc3ccc(C4CCN(C5CCCC5)CC4)cc3)n2)C[C@@H]1NC(=O)N(C)C [Example 290, 3-(4-(1-cyclopentylpiperidin-4-yl)phenylamino)-5-((3R,4R)-3-(3,3-dimethylureido)-4-methylpiperidin-1-yl)pyrazine-2-carboxamide]
< 10 nM	< 10 nM		NC(=O)c1ncc(N2CCC[C@@H](NC=O)C2)nc1Nc1ccc(C2CCN(C3CCCC3)CC2)cc1 [Example 295, (R)-3-(4-(1-cyclopentylpiperidin-4-yl)phenylamino)-5-(3-formamidopiperidin-1-yl)pyrazine-2-carboxamide]
< 10 nM	< 10 nM		CCC(=O)N[C@@H]1CCCN(c2cnc(C(N)=O)c(Nc3ccc(C4CCN(C5CCCC5)CC4)cc3)n2)C1 [Example 296, (R)-3-(4-(1-cyclopentylpiperidin-4-yl)phenylamino)-5-(3-propionamidopiperidin-1-yl)pyrazine-2-carboxamide]
< 10 nM	< 10 nM		CCN(C)C(=O)N[C@@H]1CCCN(c2cnc(C(N)=O)c(Nc3ccc(C4CCN(C5CCCC5)CC4)cc3)n2)C1 [Example 297, (R)-3-(4-(1-cyclopentylpiperidin-4-yl)phenylamino)-5-(3-(3-ethyl-3-methylureido)piperidin-1-yl)pyrazine-2-carboxamide]
< 10 nM	< 10 nM		CCOC(=O)N[C@@H]1CCCN(c2cnc(C(N)=O)c(Nc3ccc(C4CCN(C5CCCC5)CC4)cc3)n2)C1 [Example 298, (R)-ethyl 1-(5-carbamoyl-6-(4-(1-cyclopentylpiperidin-4-yl)phenylamino)pyrazin-2-yl)piperidin-3-ylcarbamate]
< 10 nM	< 10 nM		NC(=O)c1ncc(N2CCC[C@@H](NC(=O)C3CC3)C2)nc1Nc1ccc(C2CCN(C3CCCC3)CC2)cc1 [Example 299, (R)-3-(4-(1-cyclopentylpiperidin-4-yl)phenylamino)-5-(3-(cyclopropanecarboxamido)piperidin-1-yl)pyrazine-2-carboxamide]
10 to 100 nM			CCS(=O)(=O)N[C@@H]1CCCN(c2cnc(C(N)=O)c(Nc3ccc(C4CCN(C5CCCC5)CC4)cc3)n2)C1 [Example 301, (R)-3-(4-(1-cyclopentylpiperidin-4-yl)phenylamino)-5-(3-(ethylsulfonamido)piperidin-1-yl)pyrazine-2-carboxamide]

From patent US9656988B2 (Pharmacyclics LLC, priority 2013, dated 2017)
